These results are taken from paper PMC12645083, “Microwave‐Enhanced Synthesis of 2‐Styrylquinoline‐4‐Carboxamides With Promising Anti‐Lymphoma Activity” (Archiv Der Pharmazie, 2025).

Test [1] has as its system panel of five tumor cell lines (HD-MB03, RPMI-8402, SU-DHL-8, A549, MDA-MB-231). As to the kind of experiment: Antiproliferative activity, range over the panel of five tumor cell lines. The class given is cell-based. The conditions noted are these: Homo sapiens; range over the active cell lines of the five-line panel; 72 h. On the procedure: The synthesized quinoline derivatives 4a–z and 4aa–ah were evaluated in vitro for their antiproliferative activity against a panel of five tumor cell lines (HD‐MB03, medulloblastoma; RPMI‐8402, T‐lymphoblastic leukemia; SU‐DHL‐8, B lymphocyte, large cell lymphoma; A549, non‐small cell lung cancer; MDA‐MB‐231, triple‐negative breast cancer) (Table 2). […] Replacing the 4‐Cl group with a trifluoromethyl group (4ac) reduced antiproliferative activity.
To test the newly synthesized compounds, various human cell lines were employed. HD‐MB03 cells were purchased from DSMZ (Braunschweig, Germany), while A549, MDA‐MB‐231, RPMI‐8420, SU‐DHL‐8, TOLEDO, VL51, SU‐DHL‐1, SU‐DHL‐18, and KM‐H2 were obtained from ATCC (Manassas, VA, USA). Cells were cultured in DMEM (for MDA‐MB‐231 and A549) or RPMI‐1640 (for RPMI‐8420, SU‐DHL‐8, TOLEDO, VL51, SU‐DHL‐1, SU‐DHL‐18, KM‐H2, and HD‐MB03) media (Gibco, Milan, Italy). Both media were supplemented with 115 units/mL penicillin G (Gibco, Milan, Italy), 115 µg/mL streptomycin (Invitrogen, Milan, Italy), and 10% fetal bovine serum (Invitrogen, Milan, Italy). Peripheral blood mononuclear cells (PBMCs) were isolated from healthy donors as previously described. For cytotoxicity assays, PBMCs were resuspended at 5 × 10⁵ cells/mL in complete RPMI medium with or without 2.5 µg/mL phytohemagglutinin (PHA) (Irvine Scientific) to stimulate T‐cell activation and proliferation. All cell lines were maintained at 37°C in a humidified atmosphere containing 5% CO₂. All compounds were dissolved in DMSO at a 10 mM stock concentration. For dose–response assays, cells were seeded in 96‐well plates at densities optimized for each cell line: HD‐MB03 at 10,000 cells/well, A549 at 4000 cells/well, and MDA‐MB‐231 at 7000 cells/well. All other cell lines were seeded at 20,000 cells/well in a final volume of 100 µL per well. After 24 h, cells were treated with a 6‐point serial dilution of compounds starting from 10 µM, in triplicate for statistical analysis. Seventy‐2 h posttreatment, 10 µL of resazurin solution (100 µg/mL) was added to each well, and cells were incubated for an additional 3–6 h. Fluorescence was measured using a Spark 10 M microplate reader (Tecan Group Ltd., Männedorf, Switzerland) with excitation at 535 nm and emission at 600 nm. The IC₅₀ was defined as the concentration of compound required to inhibit cell proliferation by 50% compared to cells treated with the highest DMSO concentration.

The subject of test [2] is VL51. As to the kind of experiment: Mitochondrial membrane potential analysis (TMRE). The class given is cell-based, human. The conditions noted are these: 24 h of treatment. Here is the method: (§1) Cells were plated in 12‐well plates at 0.2 × 10⁶ cells/mL in 1 mL of complete medium. After 24 h, cells were treated with the indicated compound concentrations. Following a further 24‐h incubation, cells were stained with TMRE (Invitrogen, US) at 1 µM for 20 min. After washing with 1X PBS, fluorescence was detected using a CytoFLEX flow cytometer (Beckman Coulter) and analyzed with FlowJo software v.10.7.1.

In test [3] the test system is TOLEDO. As to the kind of experiment: Mitochondrial membrane potential analysis (TMRE). Conditions: 24 h of treatment. The class given is cell-based, human. Here is the method:
as §1

Test [4] concerns VL51. As to the kind of experiment: Apoptosis assay, Annexin V/PI staining. Conditions: 2 µM, 48 h. The class given is cell-based, human. Here is the method:
(§2) For apoptosis evaluation, cells were plated in 12‐well plates at 0.2 × 10⁶ cells/mL in 1 mL of complete medium. After 24 h, cells were treated with the indicated compound concentrations. After 48 h, cells were harvested, centrifuged, and stained with Annexin V‐FITC and propidium iodide (PI) using the Annexin‐V Fluos kit (Roche Diagnostics), following the manufacturer's instructions. Fluorescence was analyzed using a Coulter Cytomics FC500 flow cytometer (Beckman Coulter) with detection in the FL1 and FL3 channels, respectively.

Test [5] relates to TOLEDO. Put plainly: Apoptosis assay, Annexin V/PI staining. The class given is cell-based, human. The conditions noted are these: 2 µM, 48 h. Here is the method: as §2
Test [6] has as its system TOLEDO. Put plainly: Cell-cycle analysis (flow cytometry). The class given is cell-based, human. The conditions noted are these: 2 µM, 48 h. On the procedure: Cells were plated in 12‐well plates at 0.2 × 10⁶ cells/mL in 1 mL of complete medium. After 24 h, cells were treated with the specified compound concentrations. […] Cells were then stained and processed as previously described. Data acquisition was performed using a Coulter Cytomics FC500 flow cytometer (Beckman Coulter).

The subject of test [7] is VL51. Put plainly: EdU incorporation assay (DNA synthesis). The conditions noted are these: 1 and 2 µM, 48 h. The class given is cell-based, human. On the procedure:
(§3) For evaluation of DNA synthesis, cells were plated in 12‐well plates at 0.2 × 10⁶ cells/mL in 1 mL of complete medium. After 24 h, cells were treated with the indicated compound concentrations. EdU (5‐ethynyl‐2‐deoxyuridine) incorporation was performed according to the Baseclick EdU Flow Cytometry Kit instructions (Sigma Aldrich, St. Louis, MO, USA) as previously described. EdU‐FITC incorporation was detected using a CytoFLEX flow cytometer (Beckman Coulter, Brea, CA, USA) and analyzed with FlowJo software v.10.7.1 (BD Biosciences).

In test [8] the test system is TOLEDO. Put plainly: EdU incorporation assay (DNA synthesis). The class given is cell-based, human. The conditions noted are these: 1 and 2 µM, 48 h. Here is the method: as §3
The test system of test [9] is VL51. As to the kind of experiment: Mitochondrial ROS detection (MitoSOX). The class given is cell-based, human. The conditions noted are these: 24 h of treatment. On the procedure: (§4) Cells were plated in 12‐well plates at 0.2 × 10⁶ cells/mL in 1 mL of complete medium. After 24 h, cells were treated with the indicated compound concentrations. Following a 24‐h treatment, cells were stained with 0.5 µM MitoSOX (Invitrogen, US) for 20 min. After washing with PBS, fluorescence was measured using a CytoFLEX flow cytometer (Beckman Coulter) and analyzed with FlowJo software v.10.7.1.

For test [10], the system named is TOLEDO. As to the kind of experiment: Mitochondrial ROS detection (MitoSOX). The class given is cell-based, human. The conditions noted are these: 24 h of treatment. On the procedure:
as §4

Broadly, the IC50 is the point on the concentration scale where inhibition reaches its midpoint. High values mean a need for much substance, low ones inhibition by little substance.

`O=C(Nc1ccc(Cl)cc1)c1cc(/C=C/c2ccccc2[N+](=O)[O-])nc2ccccc12` [4ah, (E)-N-(4-chlorophenyl)-2-(2-nitrostyryl)quinoline-4-carboxamide]: the 50% inhibitory concentration (IC50) in [1] was in the range of 1.33 to 6.92 µM.
Turning to `O=C(Nc1ccc([N+](=O)[O-])cc1)c1cc(/C=C/c2ccccc2)nc2ccccc12` [4i, (E)-N-(4-nitrophenyl)-2-styrylquinoline-4-carboxamide], the “Mitochondrial membrane depolarization (TMRE-negative cells)” value in the test with VL51 [2] and in the test on TOLEDO [3] was “increased percentage of TMRE‐negative cells” throughout. The “Mode of cell death (Annexin V/PI)” value was “induced late apoptosis and necrosis” in the test on VL51 [4]; “induced late apoptosis and necrosis” in the test on TOLEDO [5]. Moreover, the Cell-cycle distribution result in the test with TOLEDO [6] is on record as “significant accumulation of cells in the G₂/M phase”. Further, the “DNA synthesis (EdU incorporation)” value in the test with VL51 [7] was “marked, dose‐dependent reduction in DNA synthesis”; with TOLEDO [8], “marked, dose‐dependent reduction in DNA synthesis”. Moreover, the “Mitochondrial ROS (MitoSOX-positive cells)” value in the test on VL51 [9] and with TOLEDO [10] was “marked dose‐dependent increase of mitochondrial ROS” in each case.
